The values below come from a melting point compilation (Tetko et al.; mined from patent text by program, amines drawn as free bases though some values may be those of a salt).

Bounds are passed on as bounds.

`CCOC(=O)n1c(SC(F)(F)C(F)F)nc(-c2ccccc2)c1-c1ccccc1` came in with a melting point of 126 to 127 °C.

For the molecule `N#CCCn1c2ccc(O)cc2c2c3c(c(-c4ccccc4Cl)cc21)C(=O)NC3=O`, the melting point was 332 to 336 °C.

The molecule `O=C(O)c1cc2cc(O)ccc2o1` displayed a melting point of 223 to 228 °C. Consider `CSc1ccc(Oc2ccc([N+](=O)[O-])cc2C#N)cc1`, for which the melting point was in the range of 124 to 126 °C.

Take `COc1c(C)cc(C(=O)c2cc(-c3ccc(Cl)cc3)c(N3CCOCC3)s2)nc1C`: the melting point came out at 160 °C. As for `O=c1c2ccc(OCc3ccccc3)cc2[nH]c2c([N+](=O)[O-])ccc(Cl)c12`, the melting point was in the range of 198 to 202 °C. To `CCOC(=O)C1=C(C)NC(COCCN)=C(C(=O)OC)C1c1cccc(Cl)c1Cl` (stereo not given) belongs 131 to 132 °C; to `CCCNC(=O)NCCCCN1CCC(CNC(=O)c2cc(Cl)c(N)cc2OC)CC1`, 114 to 115 °C; to `C=COCCN1CCC(Nc2nc3ccccc3n2Cc2ccc(F)cc2)CC1`, 138 °C. The same measure for `CCCC(O)c1cc(C#N)ccc1OCc1ccc(Cl)cc1Cl` (stereo not given): 120 to 121 °C; for `Clc1ccc(NN=Cc2ccc(Oc3nn(Cc4ccccc4)c4ccccc34)o2)nn1`: 200 to 202 °C.

With `Cn1ncc(N(CCCCl)Cc2ccccc2)c(Cl)c1=O`, the melting point is 92 to 93 °C. The same measure for `CCCCOc1c(CNC(=O)OCC2c3ccccc3-c3ccccc32)n(CC(C)C)c(=O)c2ccc(-c3nc(C(=O)OCC)cs3)cc12`: 203 to 204 °C; for `COc1ccc(NC(=O)CBr)c(C(=O)O)c1`: 172 to 173 °C. To `O=C(O)c1ccccc1Oc1ccccc1C1CCCCC1` belongs 109 to 123 °C; to `O=C(N[C@@H](CSC(=O)OCc1ccccc1)C(=O)O)OCc1ccccc1`, 93 to 94 °C. To `CCCCn1c(=O)c(NC(=O)Nc2c(C(C)C)cccc2C(C)C)c(-c2cccc(CCCO)c2)c2cccnc21` belongs 188 to 189 °C; to `CC[N+]1([O-])CCC(O)(c2cc(F)cc(Cl)c2)C1` (stereo not given), 158 to 160 °C; to `NS(=O)(=O)c1ccc(-c2noc(-c3ncn4c(C(F)(F)F)cc(-c5ccc(C(F)(F)F)cc5)nc34)n2)s1`, 295 °C. In turn, `CC(=O)OCCCc1c(C)[nH]c(C(=O)OC(C)(C)C)c1C` gave a melting point of 73 °C. The same measure for `COC(=O)c1c[nH]c(Sc2ccc(Cl)cc2)c1`: 122 to 124 °C; for `CCCc1c(OCCCCCc2c(Cl)ccc(OC)c2OC)ccc(C(=O)OC)c1O`: 53 to 55 °C.

Molecule `NC(=O)N(O)CC=Cc1cccc(F)c1Sc1ccc(Cl)cc1` displayed a melting point of 125 to 127 °C. The same measure for `CCC(C)C(C)C(=O)Nc1ccc2c(C)cn3c(=O)c(C(=O)NCCN4CCN(C(c5ccccc5)c5ccccc5)CC4)cnc3c2c1` (stereo not given): 226 to 230 °C; for `O=C(O)CCCOc1ccc2nc3[nH]c(=O)[nH]c3cc2c1`: over 320 °C. To `COc1cc(OCc2ccccn2)ccc1/C=C/c1cc(/C=C/c2ccc3[nH]ccc3c2)n[nH]1` belongs 98 to 104 °C; to `NC(=S)Nc1c(Br)cccc1Br`, 186 to 189 °C. The same measure for `CC(C)(C)NC(=O)[C@@H]1CCCN1C(=O)[C@@H](O)[C@H](Cc1ccccc1)NC(=O)[C@H](CC(N)=O)NC(=O)COc1cccc(N)c1`: 108 to 114 °C; for `COC(=O)C1CCC2C3CCC4CC=CCC4(C)C3C(NCCC(C)C)CC12C` (stereo not given): 150 to 152 °C; for `CCN(CC)CC(=O)Nc1ccc(NC(=O)Nc2ccc(N(CCCl)CCCl)cc2)cc1`: 209 to 211 °C. The molecule `C/C(=N\OC(=O)C1CCN(C(=O)OC(C)(C)C)CC1)[C@H]1CC[C@H]2[C@@H]3CCC4=CC(=O)CC[C@]4(C)[C@H]3CC[C@]12C` came in with a melting point of 167 to 169 °C.

With `CC(C)Cn1c(C(=O)O)c(OCCCC(F)(F)F)c2cc(OCc3ccccc3)ccc2c1=O`, the melting point fell in the range of 130 to 131 °C. To `COCc1nc2nccnc2c(=O)n1C` belongs 130 to 132 °C; to `CCOC(=O)c1cc2c3n(ccc-2n1)CC=N3`, 154 to 156 °C; to `COc1ccc(S(=O)(=O)N(Cc2ccccc2)c2c(C(=O)O)cnc3c2c(C)nn3-c2ccccc2)cc1`, 207 to 210 °C. The same measure for `O=C(O)C1CCCn2c(=O)n(CS)c(=O)n21` (stereo not given): 158 °C; for `NC(=O)c1nc(-c2cccnc2O)nc2c1[nH]c(=O)n2-c1ccccc1C(F)(F)F`: 331 to 335 °C.

As to `Cn1c(-c2ccccc2Cl)nnc1-c1ccccc1Cl`, the melting point came out at 140 °C. The molecule `CCOC(=O)c1ncc2[nH]c3ccc(C(C)OC)cc3c2c1C` (stereo not given) displayed a melting point of 96 to 97 °C. The same measure for `O=C(Nc1ccc(Cl)cc1)NC1N=C(c2ccccc2F)c2ccccc2NC1=O` (racemic): 278 °C; for `O=C(Sc1ccccn1)c1ccncc1`: 115 °C; for `O=Cc1ccc(C(F)(F)F)cc1[N+](=O)[O-]`: 63 °C. The same measure for `Cc1ccc(C#Cc2ccc(NC(=O)OC(C)(C)C)c([N+](=O)[O-])c2)cc1`: 164 to 165 °C; for `Cc1ccc(-n2cc(C(=O)O)c(=O)c3cc(F)c(F)c(F)c32)cc1`: 110 to 111 °C. The molecule `Brc1cncc2ncc(Br)n12` yielded a melting point of 150 °C. The same measure for `Oc1ccc2c(c1)CCc1c-2oc2cc(O)ccc12`: 219 to 220 °C; for `O=C(CNc1ccc2[nH]c(=O)oc2c1)N1CCC(Oc2ccccc2)CC1`: 220 to 223 °C; for `CC1(C)C(=O)NC(=O)c2cc3nc(-c4ccncc4)[nH]c3cc21`: 218 to 221 °C. The same measure for `Nc1cccc(-c2ccc(C3CCNC3=O)cc2F)n1` (stereo not given): 185 to 188 °C. The same measure for `CCOc1ccc2c(c1)n(C1CCCCC1)c(=O)n2S(=O)(=O)c1ccc(C(=O)Nc2ccccc2C)cc1OC`: 179 °C. As for `Cc1ccc(S(=O)(=O)OCCCCCCCn2c3c(c4ccccc4c2=O)C(=O)c2ccccc2-3)cc1`, the melting point lay within 123 to 126 °C. The molecule `CC12CC(N3CCOCC3)C(O)CC1CCC1C2CCC2(C)C(O)C(N3CCCCC3)CC12` (stereo not given) had a melting point of 222 to 229 °C.

The molecule `CC(=O)NC[C@H]1CN(c2ccc(N3CCC(O)(CN=[N+]=[N-])CC3)cc2)C(=O)O1` returned a melting point of 134 to 136 °C. `CCC(C=CC(C)C1CCC2C3CC=C4CC(OC(=O)NCCO)CCC4(C)C3CCC12C)C(C)C` (stereo not given) came in with a melting point of 172 to 173 °C. `Cc1ccc(NC(=O)c2ccc(CN3CCCCC3)c(C(F)(F)F)c2)cc1-c1ccc2cnncc2c1` displayed a melting point of 175 to 177 °C. `CONC(=O)NC1(c2ccc(C(C)C)cc2OC)C(=O)c2ccccc2C1=O` returned a melting point of 153 to 155 °C.

`Cc1c(C(=O)O)cccc1C(=O)c1ccc(Cl)cc1` displayed a melting point of 205 °C.

The molecule `COC(=O)c1cc(C)cnc1C1=NC(C)(C(C)C)C(=O)N1C(=O)c1ccccc1` (stereo not given) came in with a melting point of 104 to 106 °C. The molecule `CN(Cc1cn[nH]c1)C1CCN(C(=O)c2ccc(Nc3nccc(Nc4ccc(F)cc4)n3)cc2)CC1` displayed a melting point of 140 to 145 °C. The same measure for `COc1cc(/C=C2/C(=O)N(C)C(=O)/C2=C/c2ccccc2)cc(OC)c1OC`: 131 to 133 °C; for `NC(=O)c1ccc(C(F)(F)F)c(Br)c1`: 148 to 150 °C; for `CCc1nc2c(N)nc3c(c2n1CC(C)(C)OCCS(C)(=O)=O)CCCC3`: 225 to 227 °C. `CC(C)(C)C(O)c1ccc(C2(c3ccccc3)OCCO2)cc1` (stereo not given) registered a melting point of 90 to 93 °C. Regarding `ClCCn1cnc2c(NC3CCCCC3)nc(Cl)nc21`, the melting point lay within 150 to 152 °C. The same measure for `COC(=O)C1=CC=CC(C(=O)OC)(N(c2ccccc2)c2ccc(-c3ccc(N(c4ccccc4)C4(C(=O)OC)C=CC=C(C(=O)OC)C4)cc3)cc2)C1` (stereo not given): 136 to 141 °C; for `C/C(=C\c1ccc(CO)cc1)c1ccc2c(c1)C(C)(C)CCO2`: 80 to 81 °C; for `CCCCc1oc2ccc(NS(C)(=O)=O)cc2c1C(=O)c1ccc(OCCN(CCCC)CCCC)cc1`: 86 °C.

On to `Cc1c(S(C)(=O)=O)cc(C(C)(C)C)c(O)c1C(=O)Nc1ccc(S(=O)(=O)C(F)(F)F)cc1Cl`, for which the melting point was 220 to 221 °C. The same measure for `CCCCCCCCCCn1c(C)cc(C)c(C(=O)O)c1=O`: 67.5 to 72 °C; for `CC(C)c1nc(CN2C(=O)C3(COc4cc5c(cc43)OCO5)c3c(Cl)cccc32)no1` (stereo not given): 165 to 167 °C. To `O=C(CBr)c1cc2c(Cl)cccc2s1` belongs 116 to 118 °C; to `Cc1cc(C)c(C(=NO)C(F)(F)F)c(C)c1`, 119 to 125 °C. As for `Cc1cc(Cn2c(=S)sc3ccccc32)cc(C)c1O`, the melting point is 164 to 165 °C. To `O=C(Nc1ccc(Oc2ccnc(NC3CC3)n2)c2ccccc12)c1cc(F)cc(N2CCOCC2)c1` belongs 118 to 120 °C; to `CCCOc1ccccc1-c1cc(C)c(C(=O)OC)c(=O)[nH]1`, 167 to 169 °C; to `O=C1OC(O)(Nc2ccccc2Br)C(c2ccccc2)C1c1ccccc1` (stereo not given), 162 to 164 °C. With `COC(=O)CCc1ccc(Nc2ccccc2[N+](=O)[O-])cc1`, the melting point fell in the range of 68 to 70 °C. For `CCNc1cncc(S(=O)(=O)N(CC)CC)c1`, the melting point is 58 to 60 °C. Molecule `c1ccc2c(c1)NC(CN1CCOCC1)CO2` (stereo not given) returned a melting point of 117 to 121 °C. The same measure for `O=C(CC(NC(=O)COCc1ccccc1)c1ccccc1)Nc1n[nH]c(=S)s1` (stereo not given): 190 to 191 °C; for `c1ccc2c(c1)Cc1c(-c3ccc(OCCN4CCOCC4)cc3)n[nH]c1-2`: 175 to 176 °C; for `CC(C)(C)C(S)(CC#N)C(C)(C)C`: 154 to 155 °C. The same measure for `COc1ccc(/C=C/c2nc3ccccc3c(=O)o2)cc1OC(C)=O`: 187 to 190 °C; for `CCC(COC)Nc1c([N+](=O)[O-])cc(C)c(C)c1[N+](=O)[O-]` (single isomer, unassigned; (-)): 42.5 to 44 °C.

Consider `NC(=O)C1(CCCCCCCCCCCCC2(C(=O)O)CC2)CC1`, for which the melting point lay within 117 to 118 °C.
